The source of these data is ChEMBL document CHEMBL2074374, “The nuclear receptor PXR is a lithocholic acid sensor that protects against liver toxicity” (Proc Natl Acad Sci U S A, 2001).

The data set concerns the target T1, Solute carrier organic anion transporter family member 1A4 (Mus musculus, UniProt Q9EP96).
T1 sequence (Q9EP96 whole entry): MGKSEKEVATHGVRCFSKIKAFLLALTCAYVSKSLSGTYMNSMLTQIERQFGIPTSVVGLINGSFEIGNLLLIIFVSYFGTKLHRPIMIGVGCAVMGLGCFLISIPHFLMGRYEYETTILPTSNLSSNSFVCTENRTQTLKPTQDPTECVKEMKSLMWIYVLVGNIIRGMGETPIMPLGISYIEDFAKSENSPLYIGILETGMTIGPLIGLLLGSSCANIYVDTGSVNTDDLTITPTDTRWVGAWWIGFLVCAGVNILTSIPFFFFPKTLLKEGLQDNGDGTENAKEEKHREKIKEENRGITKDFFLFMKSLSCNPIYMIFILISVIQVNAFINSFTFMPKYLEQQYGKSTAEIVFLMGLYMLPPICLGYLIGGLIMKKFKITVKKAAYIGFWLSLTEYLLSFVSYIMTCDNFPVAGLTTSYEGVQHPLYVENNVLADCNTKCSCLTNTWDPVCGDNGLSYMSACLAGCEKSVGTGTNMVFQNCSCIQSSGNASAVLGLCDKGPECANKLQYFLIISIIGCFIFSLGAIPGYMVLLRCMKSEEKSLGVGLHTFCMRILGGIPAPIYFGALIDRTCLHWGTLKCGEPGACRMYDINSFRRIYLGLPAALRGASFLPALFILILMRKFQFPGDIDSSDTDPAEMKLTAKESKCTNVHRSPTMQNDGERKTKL
Put plainly: TP_TRANSPORTER: Northern blot in vivo, liver of PXR+/+ mouse. Type of data set: functional, organism-based.

With `C[C@H](CCC(=O)O)[C@H]1CC[C@H]2[C@@H]3CC[C@@H]4C[C@H](O)CC[C@]4(C)[C@H]3CC[C@]12C` [LITHOCHOLIC ACID], the Activity result is “inducer [+]”.

For `CC(=O)[C@H]1[C@H](C#N)C[C@H]2[C@@H]3CC=C4C[C@@H](O)CC[C@]4(C)[C@H]3CC[C@@]21C` [PREGNENOLONE CARBONITRILE], the Activity entry was “inducer [+]”.
